Measurements as given in patent US7763611B2, “Aroylsemicarbazide derivatives against thromboembolic diseases” (Merck Patent GmbH, priority 2003, dated 2010).

Assays:
TF/FVIIa = TF/FVIIa (Homo sapiens, UniProt P08709); experiment: TF/FVIIa inhibition (TF/FVIIa-IC50); type: biochemical
Excerpt: The inhibition of factor VIIa by the compounds according to the invention and the measurement of the anticoagulant and antithrombotic activity can be determined by conventional in-vitro or in-vivo methods. A conventional method for the measurement of the inhibition of factor VIIa is described, for example, by H. F. Ronning et al. in Thrombosis Research 1996, 84, 73-81.

FXa = FXa (Homo sapiens, UniProt P00742); experiment: Factor Xa inhibition (FXa-IC50); type: biochemical
FXa, sequence (P00742 235-488 limits assumed): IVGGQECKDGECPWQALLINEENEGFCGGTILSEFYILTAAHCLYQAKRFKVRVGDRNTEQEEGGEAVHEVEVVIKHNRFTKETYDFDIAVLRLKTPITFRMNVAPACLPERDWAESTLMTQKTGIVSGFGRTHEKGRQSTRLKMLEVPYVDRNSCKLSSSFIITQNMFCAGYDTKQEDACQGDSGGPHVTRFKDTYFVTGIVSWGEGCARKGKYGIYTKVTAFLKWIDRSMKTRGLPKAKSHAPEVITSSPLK
FXa, sequence (P00742 41-179 limits assumed): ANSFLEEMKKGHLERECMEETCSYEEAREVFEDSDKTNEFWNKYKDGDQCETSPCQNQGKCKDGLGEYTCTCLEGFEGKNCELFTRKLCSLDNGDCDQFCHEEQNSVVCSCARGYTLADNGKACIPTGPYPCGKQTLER
Excerpt: The inhibition of factor Xa by the compounds according to the invention and the measurement of the anticoagulant and antithrombotic activity can be determined by conventional in-vitro or in-vivo methods. A suitable method is described, for example, by J. Hauptmann et al. in Thrombosis and Haemostasis 1990, 63, 220-223.
The inhibition of factor Xa can be measured, for example by the method of T. Hara et al. in Thromb. Haemostas. 1994, 71, 314-319.

TF/FVIIa, sequence (P08709 213-466 limits assumed): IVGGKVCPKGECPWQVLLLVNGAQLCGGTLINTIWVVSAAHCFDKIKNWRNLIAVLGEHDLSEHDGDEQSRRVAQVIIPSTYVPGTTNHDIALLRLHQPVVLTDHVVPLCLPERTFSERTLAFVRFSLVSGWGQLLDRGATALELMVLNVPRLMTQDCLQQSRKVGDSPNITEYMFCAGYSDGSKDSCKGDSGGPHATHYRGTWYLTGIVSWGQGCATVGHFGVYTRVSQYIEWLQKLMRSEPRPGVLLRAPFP
TF/FVIIa, sequence (P08709 61-212 limits assumed): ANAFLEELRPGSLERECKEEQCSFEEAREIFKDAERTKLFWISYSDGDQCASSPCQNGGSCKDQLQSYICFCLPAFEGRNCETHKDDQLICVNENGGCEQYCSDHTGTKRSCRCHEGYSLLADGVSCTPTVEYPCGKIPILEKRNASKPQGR
TF/FVIIa, sequence (P13726 33-295 partner): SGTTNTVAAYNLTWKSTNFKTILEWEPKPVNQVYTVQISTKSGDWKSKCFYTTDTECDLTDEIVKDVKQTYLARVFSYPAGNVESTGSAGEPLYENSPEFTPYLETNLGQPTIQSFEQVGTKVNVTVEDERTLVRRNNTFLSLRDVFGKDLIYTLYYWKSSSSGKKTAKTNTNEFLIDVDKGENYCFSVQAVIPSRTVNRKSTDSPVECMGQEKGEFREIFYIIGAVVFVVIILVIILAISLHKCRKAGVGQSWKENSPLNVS

SMILES	IC50 (TF/FVIIa) [nM]	IC50 (FXa) [nM]	melting point [°C]
C#CCN(NC(=O)c1ccc(Cl)s1)C(=O)Nc1ccc(N2CCOCC2=O)c(C)c1 [Compound A2, 1-(5-chlorothien-2-ylcarbonyl)4-[3-methyl-4-(3-oxomorpholin4-yl)-phenyl]-2-(prop-2-ynyl)semicarbazide]	1000	570	
Cc1cc(NC(=O)N(Cc2ccccc2)NC(=O)c2sccc2Cl)ccc1N1CCOCC1=O [Compound A3, 1-(3-chlorothien-2-ylcarbonyl)4-[3-methyl4-(3-oxomorpholin4-yl)-phenyl]-2-benzylsemicarbazide]	180	87	
CCCN(NC(=O)c1ccc(Cl)s1)C(=O)Nc1ccc(N2CCOCC2=O)cc1 [Compound A1, 1-(5-chlorothien-2-ylcarbonyl)-4-[4-(3-oxomorpholin-4-yl)phenyl]-2-propylsemicarbazide]	830	390	101 to 102
